Patent US20050119300A1, “Development of novel regulators of angiogenesis” (priority 2002, published 2005)

Legend:
[1] = tested on: vascular endothelial growth factor (VEGF) and basic fibroblast growth factor (bFGF) induced angiogenesis; conditions: has been reported; cited from earlier work
endothelial cells = conditions: reported; cited from earlier work
[2] = tested on: human vascular endothelial cells (HUVECS); assay: Endothelial cell proliferation, 3H-thymidine uptake assay; assay type: cell-based; conditions: for % Inhibition vs 10% Serum / Average ([3H]-thymidine incorporation, radioactivity) / Well 1 ([3H]-thymidine incorporation, radioactivity) / Well 2 ([3H]-thymidine incorporation, radioactivity) / Well 3 ([3H]-thymidine incorporation, radioactivity) / Well 4 ([3H]-thymidine incorporation, radioactivity): Table 1A
Experimental: After 20 h, [^3H]-thymidine (2 μCi/ml) was added to the culture medium for 2-4 h. The [^3H]-thymidine incorporation was stopped with ice-cold PBS (3 washes) and the cells were incubated with cold 10% trichloroacetic acid (TCA) for 10 min at 4C. The cells were further incubated with TCA at room temperature for 10 min and washed three times with PBS. The cells were solubilized overnight with 1N NaOH and neutralized with an equivalent amount of 1N HCl before radioactivity was determined. […]

[3] = tested on: VEGF-induced and bFGF-induced corneal neovascularization; conditions: further studies, reported; cited from earlier work

## O=C1CCC(N2C(=O)c3ccccc3C2=O)C(=O)N1 (stereo not shown) [STD, thalidomide]
[1]
  anti-angiogenic efficacy against VEGF and bFGF induced angiogenesis: significant anti-angiogenic efficacy
Endothelial cells
  inhibition of the in vitro proliferation of endothelial cells: ability to inhibit
[2]; 3H-thymidine uptake
  effect on endothelial cell proliferation (in words): significant inhibition of endothelial cell proliferation
[2]; 38.5 uM
  % Inhibition vs 10% Serum: −61.49%
  Average ([3H]-thymidine incorporation, radioactivity): 2700.214
  Well 1 ([3H]-thymidine incorporation, radioactivity): 1835.938
  Well 2 ([3H]-thymidine incorporation, radioactivity): 2018.496
  Well 3 ([3H]-thymidine incorporation, radioactivity): 4751.43
  Well 4 ([3H]-thymidine incorporation, radioactivity): 2194.99
[2]; 96 uM
  % Inhibition vs 10% Serum: 30.39%
  Average ([3H]-thymidine incorporation, radioactivity): 1163.906
  Well 1 ([3H]-thymidine incorporation, radioactivity): 1736.688
  Well 2 ([3H]-thymidine incorporation, radioactivity): 850.094
  Well 3 ([3H]-thymidine incorporation, radioactivity): 1083.54
  Well 4 ([3H]-thymidine incorporation, radioactivity): 985.3011
[2]; 192.5 uM
  % Inhibition vs 10% Serum: 78.48%
  Average ([3H]-thymidine incorporation, radioactivity): 359.8271
  Well 1 ([3H]-thymidine incorporation, radioactivity): 255.2577
  Well 2 ([3H]-thymidine incorporation, radioactivity): 435.4396
  Well 3 ([3H]-thymidine incorporation, radioactivity): 336.7686
  Well 4 ([3H]-thymidine incorporation, radioactivity): 411.8425
[2]; 289 uM
  % Inhibition vs 10% Serum: 85.34%
  Average ([3H]-thymidine incorporation, radioactivity): 245.0808
  Well 1 ([3H]-thymidine incorporation, radioactivity): 198.4536
  Well 2 ([3H]-thymidine incorporation, radioactivity): 273.8429
  Well 3 ([3H]-thymidine incorporation, radioactivity): 272.3789
  Well 4 ([3H]-thymidine incorporation, radioactivity): 235.6478
[2]; 385 uM
  % Inhibition vs 10% Serum: 86.86%
  Average ([3H]-thymidine incorporation, radioactivity): 219.7341
  Well 1 ([3H]-thymidine incorporation, radioactivity): 141.5772
  Well 2 ([3H]-thymidine incorporation, radioactivity): 255.4687
  Well 3 ([3H]-thymidine incorporation, radioactivity): 210.2551
  Well 4 ([3H]-thymidine incorporation, radioactivity): 271.6354

## O=C1CC[C@H](N2C(=O)c3ccccc3C2=O)C(=O)N1 [S(−)-enantiomer of thalidomide]
[3]
  anti-angiogenic activity in VEGF-induced and bFGF-induced corneal neovascularization: potent anti-angiogenic activity
